Measurements taken from publication PMC8198714, “New Coumarin Derivatives as Cholinergic and Cannabinoid System Modulators” (Molecules, 2021).
Where two headings read alike, the source gives them in different places.

Key:
[1] = target: T1, hAChE (Homo sapiens, UniProt P22303); assay: Stopped time assay of hAChE carbamoylation; format: biochemical; details: determined at IC50 value
T1 construct: purchased Sigma-Aldrich, Merck group, Milan, Italy
Protocol: Given these premises, we initially investigated the time-dependent ChEs inhibition by 2–4 by evaluating the time required to achieve a plateau in the inhibition plot.
A stopped time assay was performed in order to define the time required for enzyme carbamoylation. In detail, residual enzyme activity upon selected incubation times was assessed by following the same protocol described in section “Determination of the inhibitory potency towards human AChE and BuChE”. […] The mixture was incubated at 37 °C for given times (from 5 to 90 min) before the addition of the substrate (AChT or BChT, respectively) and the determination of residual enzyme activity by Ellman’s method. A parallel control, with no inhibitor, allowed to adjust activities measured at various time.

[2] = target: T2, FAAH in rat brain membranes (Rattus norvegicus, UniProt P97612); assay: FAAH assay, [14C]-AEA hydrolysis in rat brain membranes
T2 sequence (P97612 1-579): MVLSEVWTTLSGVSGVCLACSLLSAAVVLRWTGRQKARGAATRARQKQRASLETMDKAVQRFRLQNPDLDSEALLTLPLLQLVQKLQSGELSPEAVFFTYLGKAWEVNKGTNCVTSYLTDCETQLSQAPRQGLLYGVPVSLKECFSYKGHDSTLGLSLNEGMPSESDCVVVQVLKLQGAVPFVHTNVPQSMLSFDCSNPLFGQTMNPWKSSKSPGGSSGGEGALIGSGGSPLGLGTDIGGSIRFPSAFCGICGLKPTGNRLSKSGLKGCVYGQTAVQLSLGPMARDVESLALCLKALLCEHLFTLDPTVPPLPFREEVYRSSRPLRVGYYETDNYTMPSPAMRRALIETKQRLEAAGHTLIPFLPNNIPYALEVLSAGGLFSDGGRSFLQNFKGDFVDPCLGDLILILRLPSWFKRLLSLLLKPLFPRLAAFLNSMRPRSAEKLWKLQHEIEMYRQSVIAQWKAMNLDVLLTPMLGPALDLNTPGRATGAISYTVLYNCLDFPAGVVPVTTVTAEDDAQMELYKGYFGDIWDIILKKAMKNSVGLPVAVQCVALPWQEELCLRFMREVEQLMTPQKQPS

[3] = target: T3, BuChE from human serum (hBuChE) (Homo sapiens, UniProt P06276); assay: Inhibition of human BuChE, Ellman's method; format: biochemical; details: for IC50: BuChE from human serum
T3 construct: commercial stock solution of BuChE from human serum (Sigma); purchased Sigma; host or cells: human serum
T3 sequence (P06276 29-602): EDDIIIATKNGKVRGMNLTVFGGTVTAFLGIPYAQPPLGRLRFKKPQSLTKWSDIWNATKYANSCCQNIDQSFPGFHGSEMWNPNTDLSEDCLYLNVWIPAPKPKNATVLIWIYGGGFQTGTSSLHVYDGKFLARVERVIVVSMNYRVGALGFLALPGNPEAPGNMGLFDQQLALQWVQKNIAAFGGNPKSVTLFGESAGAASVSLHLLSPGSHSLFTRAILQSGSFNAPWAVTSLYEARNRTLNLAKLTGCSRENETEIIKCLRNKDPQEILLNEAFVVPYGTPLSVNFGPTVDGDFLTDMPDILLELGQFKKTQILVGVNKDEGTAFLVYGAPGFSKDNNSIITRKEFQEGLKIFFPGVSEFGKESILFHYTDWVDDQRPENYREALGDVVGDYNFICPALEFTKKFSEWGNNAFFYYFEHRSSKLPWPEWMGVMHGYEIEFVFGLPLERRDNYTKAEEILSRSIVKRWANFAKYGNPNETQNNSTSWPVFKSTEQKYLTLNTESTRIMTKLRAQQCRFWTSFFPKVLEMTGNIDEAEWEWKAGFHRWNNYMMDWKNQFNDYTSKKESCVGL
Protocol: (§1) The capacity of 2–7 to inhibit human ChE activity was assessed using the Ellman’s method. Initial rate assays were performed at 37 °C with a V-530 double beam spectrophotometer (Jasco Corporation, Cremella (LC), Italy city, state/prov abbrev if USA/Canada, country). […] AChE stock solution was prepared by dissolving human recombinant AChE lyophilized powder (Sigma-Aldrich, Merck group, Milan, Italy) in 0.1 M phosphate buffer at pH 8.0 containing 0.1% Triton X-100. Stock solution of BuChE was prepared by diluting commercial stock solution of BuChE from human serum (Sigma) in an aqueous solution of gelatin (0.2%) in order to have a final activity comprised between 0.11–0.15 ΔAbs/min. Stock solutions of inhibitors (1–2 mM) were prepared in methanol and diluted in methanol. […] Incubation times were: 60 min for 2 and 90 min for 3 and 4 on hAChE assay, and 45 min for 2 and 60 min for 3 and 4 on hBuChE assay, as assessed on the preliminary determination of the carbamoylation rate. Blank solutions containing all components except the enzyme were prepared in order to account for the non-enzymatic hydrolysis of the substrate. The reaction rates obtained in the absence and presence of inhibitor were compared and the percent inhibition due to the presence of inhibitor was calculated. […] Two independent experiments were performed for the determination of each IC50 value or for the calculation of the % of inhibition where the IC50 value could not be determined because of low inhibitory activity.

[4] = target: T4, human recombinant AChE (hAChE) (Homo sapiens, UniProt P22303); assay: Inhibition of human AChE, Ellman's method; format: biochemical; details: for IC50: human recombinant AChE; for inhibition at 40 µM: [I] = 40 µM, read-out: hAChE % Inhibition (±SEM)
T4 construct: purchased Sigma-Aldrich, Merck group, Milan, Italy
T4 sequence (P22303 32-614): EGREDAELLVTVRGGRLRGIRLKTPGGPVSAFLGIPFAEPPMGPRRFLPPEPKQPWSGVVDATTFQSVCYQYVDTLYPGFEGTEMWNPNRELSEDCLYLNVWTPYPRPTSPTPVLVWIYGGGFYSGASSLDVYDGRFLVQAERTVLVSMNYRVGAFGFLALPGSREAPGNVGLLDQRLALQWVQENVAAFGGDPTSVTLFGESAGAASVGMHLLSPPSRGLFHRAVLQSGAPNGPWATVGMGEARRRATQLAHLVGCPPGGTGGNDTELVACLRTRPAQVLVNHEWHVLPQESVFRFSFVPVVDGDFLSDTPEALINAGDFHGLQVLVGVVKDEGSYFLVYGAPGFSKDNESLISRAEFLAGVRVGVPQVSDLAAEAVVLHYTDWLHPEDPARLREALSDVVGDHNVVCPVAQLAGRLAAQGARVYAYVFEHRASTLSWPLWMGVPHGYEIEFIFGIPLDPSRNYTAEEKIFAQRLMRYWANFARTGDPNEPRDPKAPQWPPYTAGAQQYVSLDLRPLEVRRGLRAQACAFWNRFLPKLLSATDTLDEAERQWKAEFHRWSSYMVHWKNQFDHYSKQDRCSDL
Protocol: as §1

[5] = target: T5, Aβ42 self-aggregation (Homo sapiens, UniProt P05067); assay: Inhibition of Aβ42 self-aggregation, thioflavin T fluorescence; format: biochemical; details: read-out: % Inhibition Aβ42 self-aggregation (±SEM)
T5 construct: pretreated Aβ42 samples (Bachem AG, Bubendorf, Switzerland); purchased Bachem AG, Bubendorf, Switzerland
T5 sequence (P05067 672-713 limits assumed): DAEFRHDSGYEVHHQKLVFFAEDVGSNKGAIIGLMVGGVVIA
Protocol: Finally, in a multitarget perspective, the compounds were tested to evaluate their Aβ anti-aggregation properties.
As reported in a previously published protocol, 1,1,1,3,3,3-hexafluoro, 2-propanol pretreated Aβ42 samples (Bachem AG, Bubendorf, Switzerland) were solubilized with a CH3CN/0.3 mM Na2CO3/250 mM NaOH (48.4:48.4:3.2) mixture. Experiments were performed by incubating the peptide in 10 mM phosphate buffer (pH = 8.0) containing 10 mM NaCl, at 30 °C for 24 h (final Aβ concentration = 50 μM) with and without inhibitor (50 μM, Aβ/inhibitor = 1/1). Blanks containing the tested inhibitors were also prepared and tested. To quantify amyloid fibrils formation, the thioflavin T (ThT) fluorescence method was used. After incubation, samples were diluted to a final volume of 2.0 mL with 50 mM glycine-NaOH buffer (pH 8.5) containing 1.5 μM ThT. A 300 s-time scan of fluorescence intensity was carried out (λexc = 446 nm; λem = 490 nm, FP-6200 fluorometer, Jasco Europe), and values at plateau were averaged after subtracting the background fluorescence of 1.5 μM ThT solution. The fluorescence intensities were compared and the percent inhibition due to the presence of the inhibitor.

[6] = target: T6, human recombinant CB1 receptor (Homo sapiens, UniProt P21554); assay: Competition binding assay with [3H]-CP-55,940 at CB1; details: for Ki: [3H]-CP55940 displacement, HEK-293 membranes, read-out: Ki on CB1 (m ± sd); for % Displacement at max tested on CB1 (m ± sd): max tested concentration 10 µM, [3H]-CP55940
T6 construct: purchased Perkin Elmer, Milan, Italy; host or cells: HEK-293
T6 sequence (P21554 whole entry): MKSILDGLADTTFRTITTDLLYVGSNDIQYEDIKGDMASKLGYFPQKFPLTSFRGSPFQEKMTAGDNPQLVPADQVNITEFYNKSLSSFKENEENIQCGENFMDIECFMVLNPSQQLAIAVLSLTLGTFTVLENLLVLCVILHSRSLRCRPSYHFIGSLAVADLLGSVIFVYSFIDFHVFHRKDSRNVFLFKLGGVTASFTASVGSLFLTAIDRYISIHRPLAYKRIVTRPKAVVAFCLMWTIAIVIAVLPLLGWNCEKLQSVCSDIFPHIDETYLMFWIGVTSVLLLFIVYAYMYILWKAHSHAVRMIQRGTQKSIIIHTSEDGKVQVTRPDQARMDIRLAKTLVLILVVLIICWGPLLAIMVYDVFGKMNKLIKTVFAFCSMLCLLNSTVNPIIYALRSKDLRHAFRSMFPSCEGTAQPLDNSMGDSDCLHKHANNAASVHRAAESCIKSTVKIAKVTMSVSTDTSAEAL
Protocol: (§2) Competition binding assay for CB1 and CB2 receptors was performed as previously reported. […] All compounds were tested following the procedure described by the manufacturer (Perkin Elmer, Milan, Italy).

[7] = target: T7, human recombinant CB2 receptor (Homo sapiens, UniProt P34972); assay: Competition binding assay with [3H]-CP-55,940 at CB2; details: for Ki: [3H]-CP55940 displacement, HEK-293 membranes, read-out: Ki on CB2 (m ± sd); for % Displacement at max tested on CB2 (m ± sd): max tested concentration 10 µM, [3H]-CP55940
T7 construct: purchased Perkin Elmer, Milan, Italy; host or cells: HEK-293
T7 sequence (P34972 whole entry): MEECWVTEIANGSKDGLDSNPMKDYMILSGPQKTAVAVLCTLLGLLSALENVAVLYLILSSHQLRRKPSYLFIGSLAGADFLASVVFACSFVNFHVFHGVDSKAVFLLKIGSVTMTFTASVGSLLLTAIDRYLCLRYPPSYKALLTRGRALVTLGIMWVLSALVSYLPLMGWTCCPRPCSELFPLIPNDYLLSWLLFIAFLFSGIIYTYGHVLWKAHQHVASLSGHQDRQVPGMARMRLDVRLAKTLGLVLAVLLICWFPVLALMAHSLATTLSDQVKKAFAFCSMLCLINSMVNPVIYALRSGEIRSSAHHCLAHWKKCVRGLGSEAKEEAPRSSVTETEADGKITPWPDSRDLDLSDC
Protocol: as §2

[8] = target: T2, FAAH in rat brain membranes; details: read-out: IC50 FAAH with 20 min Pre-incubation; cited from earlier work
[9] = IC50 FAAH (m ± sd), rat brain membranes, AEA hydrolysis, without pre-incubation
[10] = IC50 FAAH with 20 min Pre-incubation, rat brain membranes, 20 min pre-incubation at 37 °C
[11] = incubation time 60 min, read-out: IC50 hBuChE (±SEM)
[12] = incubation 20 min, read-out: hBuChE IC50 (±SEM)

T1 sequence (P22303 32-614): as the sequence (P22303 32-614) above

SMILES | IC50 [2, 9] [µM] | IC50 [2, 10] [µM] | inhibition at 50 µM [5] [%] | Ki [6] [µM] | % Displacement at max tested on CB1 (m ± sd) [6] | IC50 [2] [µM] | Ki [7] [µM] | % Displacement at max tested on CB2 (m ± sd) [7] | IC50 [3, 12] [µM] | inhibition at 40 µM ([4]; incubation 20 min) [%] | further results
CN(CCCOc1ccc2ccc(=O)oc2c1)Cc1cccc(OC(=O)NC2CCCC2)c1 [Compound 2, 3-((Methyl(3-((2-oxo-2H-chromen-7-yl)oxy)propyl)amino)methyl)phenyl cyclopentylcarbamate] | 6.09 ± 1.55 | 2.53 ± 0.55 | 22.9 ± 1.3 |  |  |  |  |  |  |  | pseudo-first order kobs of hAChE carbamoylation [1]: 0.038 min⁻¹; IC50 ([3]; incubation time 45 min, read-out: IC50 hBuChE (±SEM)): 0.00842 ± 0.00013 µM; IC50 ([4]; incubation time 60 min, read-out: IC50 hAChE (±SEM)): 0.521 ± 0.014 µM
CN(CCCOc1ccc2ccc(=O)oc2c1)Cc1cccc(OC(=O)NC2CCCCC2)c1 [Compound 3, 3-((Methyl(3-((2-oxo-2H-chromen-7-yl)oxy)propyl)amino)methyl)phenyl cyclohexylcarbamate] | 2.55 ± 0.33 | 1.33 ± 0.28 | 18.9 ± 2.1 |  |  |  |  |  |  |  | IC50 [3, 11]: 0.0349 ± 0.0042 µM; IC50 ([4]; incubation time 90 min, read-out: IC50 hAChE (±SEM)): 0.104 ± 0.021 µM
CN(CCCOc1ccc2ccc(=O)oc2c1)Cc1cccc(OC(=O)Nc2ccc3ccccc3c2)c1 [Compound 4, 3-((Methyl(3-((2-oxo-2H-chromen-7-yl)oxy)propyl)amino)methyl)phenyl naphthalen-2-ylcarbamate] | 1.58 ± 0.26 | 0.63 ± 0.08 | 13.9 ± 3.8 |  |  |  |  |  |  |  | IC50 [3, 11]: 0.002 ± 0.0002 µM; difference in IC50 values hAChE vs hBuChE (selectivity) ([3]; hBuChE over hAChE): 100 fold
CN(CCCOc1ccc2ccc(=O)oc2c1)Cc1cccc(OCC(=O)NC2CCCCC2)c1 [Compound 7, N-Cyclohexyl-2-(3-((methyl(3-((2-oxo-2H-chromen-7-yl)oxy)propyl)amino)methyl)phenoxy)-acetamide] |  |  | 13.5 ± 5 | > 10 | 10 (39.62 ± 10.48) % | > 1000 | > 10 | 10 (14.3 ±3.83) % | 12.8 ± 2.1 | 34 ± 3.2 | 
CN(CCCOc1ccc2ccc(=O)oc2c1)Cc1cccc(OCC(=O)NC2CCCC2)c1 [Compound 6, N-Cyclopentyl-2-(3-((methyl(3-((2-oxo-2H-chromen-7yl)oxy)propyl)amino)methyl)phenoxy)-acetamide] |  |  | 20.3 ± 1.9 | > 10 | 10 (35.75 ± 0.65) % | > 1000 | > 10 | 10 (48.33 ± 1.73) % | 11.6 ± 0.8 | 41.7 ± 0.5 | IC50 ([4]; incubation 20 min, read-out: IC50 hAChE): 59.4 µM
CCCCCCCNC(=O)Oc1cccc(CN(C)CCCOc2ccc3ccc(=O)oc3c2)c1 [Compound 1] |  |  |  |  |  |  |  |  |  |  | IC50 [8]: 0.029 ± 0.001 µM
CCCCCCCNC(=O)COc1cccc(CN(C)CCCOc2ccc3ccc(=O)oc3c2)c1 [Compound 5, N-Heptyl-2-(3-((methyl(3-((2-oxo-2H-chromen-7-yl)oxy)propyl)amino)methyl)phenoxy)acetamide] |  |  |  | > 10 | 10 (35.57 ± 0.43) % | > 1000 | > 10 | 10 (41.41 ± 0.87) % | 182 ± 28 | 13.6 ± 5.1 | 
